This note sets out measurements from patent US20090118274A1, “MONOCYCLIC AMINOPROPYL TETRAHYDRO-PYRAZOLO-PYRIDINE MODULATORS OF CATHEPSIN S” (priority 2007, published 2009).

T1 sequence (P25774 115-331): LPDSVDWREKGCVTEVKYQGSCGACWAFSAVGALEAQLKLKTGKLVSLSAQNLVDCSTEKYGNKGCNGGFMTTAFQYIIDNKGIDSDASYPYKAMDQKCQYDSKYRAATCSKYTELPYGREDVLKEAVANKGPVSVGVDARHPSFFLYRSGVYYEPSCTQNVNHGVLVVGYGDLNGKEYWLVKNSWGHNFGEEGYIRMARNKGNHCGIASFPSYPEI

One experiment concerns the target T1, Recombinant human cathepsin S (CatS) (Homo sapiens, UniProt P25774).
T1 construct: made in house
Nature of the experiment: Recombinant human cathepsin S (CatS) fluorogenic substrate inhibition assay. Type of experiment: biochemical.
Settings: not given
On the procedure:
Recombinant human cathepsin S (CatS) was expressed in the baculovirus system and purified in one step with a thiopropyl-sepharose column. […] The assay is run in 150 mM sodium acetate pH 5.0 containing 1.5 mM DTT and 150 mM NaCl. […] Measurements are taken every min for 20 min. The rate is calculated from the slope of the increase in fluorescence and the percent inhibition is calculated from this.
Turning to `CS(=O)(=O)N1CCc2c(c(-c3ccc(C(F)(F)F)c(CNC(=O)Oc4ccccc4)c3)nn2CC(O)CN2CCCC2)C1` (centres unmarked) [Example 116, {5-[1-(2-Hydroxy-3-pyrrolidin-1-yl-propyl)-5-methanesulfonyl-4,5,6,7-tetrahydro-1H-pyrazolo[4,3-c]pyridin-3-yl]-2-trifluoromethyl-benzyl}-carbamic acid phenyl ester], the IC50 stood at 520 nM.

Staying with this experiment, now noted: average of results obtained; substrate Z-Valine-Valine-Arginine-AMC 10 μM, pH 5.0; read-out: CatS IC50.
For the compound `CN(C)C1CCN(CCCn2nc(-c3ccc(C(F)(F)F)c(CNC(=O)c4ccc(F)cc4)c3)c3c2CCN(S(C)(=O)=O)C3)C1` (centres unmarked) [Example 5, N-(5-{1-[3-(3-Dimethylamino-pyrrolidin-1-yl)-propyl]-5-methanesulfonyl-4,5,6,7-tetrahydro-1H-pyrazolo[4,3-c]pyridin-3-yl}-2-trifluoromethyl-benzyl)-4-fluoro-benzamide], the half-maximal inhibitory concentration (IC50) worked out at 150 nM.
Turning to `CS(=O)(=O)N1CCc2c(c(-c3ccc(C(F)(F)F)c(CNC(=O)C4CCCCC4)c3)nn2CC(O)CN2CCCC2)C1` (centres unmarked) [Example 168, Cyclohexanecarboxylic acid 5-[1-(2-hydroxy-3-pyrrolidin-1-yl-propyl)-5-methanesulfonyl-4,5,6,7-tetrahydro-1H-pyrazolo[4,3-c]pyridin-3-yl}-2-trifluoromethyl-benzylamide], the IC50 turned out to be 500 nM.
Still for that read-out and setting: then `CS(=O)(=O)N1CCc2c(c(-c3ccc(C(F)(F)F)c(CNC(=O)c4ccc(F)cc4)c3)nn2CC(O)CN2CCNC(=O)C2)C1` (centres unmarked) [Example 19, 4-Fluoro-N-(5-{1-[2-hydroxy-3-(3-oxo-piperazin-1-yl)-propyl]-5-methanesulfonyl-4,5,6,7-tetrahydro-1H-pyrazolo[4,3-c]pyridin-3-yl}-2-trifluoromethyl-benzyl)-benzamide], with 330 nM; and `CC(=O)N(C)C1CCN(CC(O)Cn2nc(-c3ccc(C(F)(F)F)c(CNC(=O)CC(C)C)c3)c3c2CCN(S(C)(=O)=O)C3)C1` (centres unmarked) [Example 279, N-[5-(1-{3-[3-(Acetyl-methyl-amino)-pyrrolidin-1-yl]-2-hydroxy-propyl}-5-methanesulfonyl-4,5,6,7-tetrahydro-1H-pyrazolo[4,3-c]pyridin-3-yl)-2-trifluoromethyl-benzyl]-3-methyl-butyramide], with 240 nM.
Consider `CS(=O)(=O)N1CCc2c(c(-c3ccc(C(F)(F)F)c(CNC(=O)c4ccc(F)cc4)c3)nn2CC(O)CN2CCC[C@H]2C(N)=O)C1` (stereo partly drawn) [Example 97, (S)-1-[3-(3-{3-[(4-Fluoro-benzoylamino)-methyl]-4-trifluoromethyl-phenyl}-5-methanesulfonyl-4,5,6,7-tetrahydro-pyrazolo[4,3-c]pyridin-1-yl)-2-hydroxy-propyl]-pyrrolidine-2-carboxylic acid amide], for which the half-inhibitory concentration (IC50) came to 240 nM.
For the compound `CC(C)CC(=O)NCc1cc(-c2nn(CC(O)CN3CCC(O)C3)c3c2CN(S(C)(=O)=O)CC3)ccc1C(F)(F)F` (centres unmarked) [Example 246, N-(5-{1-[2-Hydroxy-3-(3-hydroxy-pyrrolidin-1-yl)-propyl]-5-methanesulfonyl-4,5,6,7-tetrahydro-1H-pyrazolo[4,3-c]pyridin-3-yl}-2-trifluoromethyl-benzyl)-3-methyl-butyramide], the half-inhibitory concentration (IC50) came out at 430 nM.
Same read-out and setting: the same measure for `CS(=O)(=O)N1CCc2c(c(-c3ccc(C(F)(F)F)c(CNC(=O)c4ccccc4)c3)nn2CC(O)CN2CCCC2)C1` (centres unmarked) [Example 56, N-{5-[1-(2-Hydroxy-3-pyrrolidin-1-yl-propyl)-5-methanesulfonyl-4,5,6,7-tetrahydro-1H-pyrazolo[4,3-c]pyridin-3-yl]-2-trifluoromethyl-benzyl}-benzamide]: 250 nM.
Consider `CS(=O)(=O)N1CCc2c(c(-c3ccc(Cl)c(CNC(=O)c4cccnc4)c3)nn2CCCN2CCCC2)C1` [Example 232, N-{2-Chloro-5-[5-methanesulfonyl-1-(3-pyrrolidin-1-yl-propyl)-4,5,6,7-tetrahydro-1H-pyrazolo[4,3-c]pyridin-3-yl]-benzyl}-nicotinamide], for which the IC50 stood at 820 nM.
Still for that read-out and setting: the same measure for `CS(=O)(=O)N1CCc2c(c(-c3ccc(C(F)(F)F)c(CNC(=O)c4ccc(F)cc4F)c3)nn2CC(O)CN2CCCC2)C1` (centres unmarked) [Example 101, 2,4-Difluoro-N-{5-[1-(2-hydroxy-3-pyrrolidin-1-yl-propyl)-5-methanesulfonyl-4,5,6,7-tetrahydro-1H-pyrazolo[4,3-c]pyridin-3-yl]-2-trifluoromethyl-benzyl}-benzamide]: 440 nM; for `CS(=O)(=O)N1CCc2c(c(-c3ccc(C(F)(F)F)c(CNC(=O)c4ccccc4F)c3)nn2CC(O)CN2CCCC2)C1` (centres unmarked) [Example 161, 2-Fluoro-N-{5-[1-(2-hydroxy-3-pyrrolidin-1-yl-propyl)-5-methanesulfonyl-4,5,6,7-tetrahydro-1H-pyrazolo[4,3-c]pyridin-3-yl]-2-trifluoromethyl-benzyl}-benzamide]: 370 nM; for `CS(=O)(=O)N1CCc2c(c(-c3ccc(C(F)(F)F)c(CNC(=O)c4ccccc4)c3)nn2CC(O)CN2CCC3(CCNC3=O)CC2)C1` (centres unmarked) [Example 145, N-(5-{1-[2-Hydroxy-3-(1-oxo-2,8-diaza-spiro[4.5]dec-8-yl)-propyl]-5-methanesulfonyl-4,5,6,7-tetrahydro-1H-pyrazolo[4,3-c]pyridin-3-yl}-2-trifluoromethyl-benzyl)-benzamide]: 130 nM.
Consider `CC1CCCN1CC(O)Cn1nc(-c2ccc(C(F)(F)F)c(CNC(=O)c3ccc(F)cc3)c2)c2c1CCN(S(C)(=O)=O)C2` (centres unmarked) [Example 100, 4-Fluoro-N-(5-{1-[2-hydroxy-3-(2-methyl-pyrrolidin-1-yl)-propyl]-5-methanesulfonyl-4,5,6,7-tetrahydro-1H-pyrazolo[4,3-c]pyridin-3-yl}-2-trifluoromethyl-benzyl)-benzamide], for which the IC50 was 330 nM.
As for `CS(=O)(=O)N1CCc2c(c(-c3ccc(C(F)(F)F)c(CNC(=O)c4ccccc4)c3)nn2CCCN2CCC3(CCNC3=O)CC2)C1` [Example 144, N-(5-{5-Methanesulfonyl-1-[3-(1-oxo-2,8-diaza-spiro[4.5]dec-8-yl)-propyl]-4,5,6,7-tetrahydro-1H-pyrazolo[4,3-c]pyridin-3-yl}-2-trifluoromethyl-benzyl)-benzamide], the IC50 came out at 110 nM.
Still for that read-out and setting: the same measure for `CS(=O)(=O)N1CCc2c(c(-c3ccc(C(F)(F)F)c(CNC(=O)c4ccc([N+](=O)[O-])cc4)c3)nn2CC(O)CN2CCCC2)C1` (centres unmarked) [Example 212, N-{5-[1-(2-Hydroxy-3-pyrrolidin-1-yl-propyl)-5-methanesulfonyl-4,5,6,7-tetrahydro-1H-pyrazolo[4,3-c]pyridin-3-yl]-2-trifluoromethyl-benzyl}-4-nitro-benzamide]: 520 nM.
For the compound `CS(=O)(=O)NCc1cc(-c2nn(CC(O)CN3CCCC3)c3c2CN(S(C)(=O)=O)CC3)ccc1C(F)(F)F` (centres unmarked) [Example 195, N-{5-[1-(2-Hydroxy-3-pyrrolidin-1-yl-propyl)-5-methanesulfonyl-4,5,6,7-tetrahydro-1H-pyrazolo[4,3-c]pyridin-3-yl]-2-trifluoromethyl-benzyl}-methanesulfonamide], the IC50 worked out at 6500 nM.
In the case of `CC(C)CC(=O)NCc1cc(-c2nn(CC(O)CN3CCC(N(C)C)CC3)c3c2CN(S(C)(=O)=O)CC3)ccc1C(F)(F)F` (centres unmarked) [Example 247, N-(5-{1-[3-(4-Dimethylamino-piperidin-1-yl)-2-hydroxy-propyl]-5-methanesulfonyl-4,5,6,7-tetrahydro-1H-pyrazolo[4,3-c]pyridin-3-yl}-2-trifluoromethyl-benzyl)-3-methyl-butyramide], the IC50 is 420 nM.
The same measure, in the same setting: the same measure for `CC(=O)Nc1ccc(C(=O)NCc2cc(-c3nn(CC(O)CN4CCCC4)c4c3CN(S(C)(=O)=O)CC4)ccc2C(F)(F)F)cc1` (centres unmarked) [Example 240, 4-Acetylamino-N-{5-[1-(2-hydroxy-3-pyrrolidin-1-yl-propyl)-5-methanesulfonyl-4,5,6,7-tetrahydro-1H-pyrazolo[4,3-c]pyridin-3-yl]-2-trifluoromethyl-benzyl}-benzamide]: 970 nM; for `CC(C)CC(=O)NCc1cc(-c2nn(CC(O)CN3CCC(C(C)(C)C)CC3)c3c2CN(C(=O)CO)CC3)ccc1C(F)(F)F` (centres unmarked) [Example 298, N-{5-[1-[3-(4-tert-Butyl-piperidin-1-yl)-2-hydroxy-propyl]-5-(2-hydroxy-acetyl)-4,5,6,7-tetrahydro-1H-pyrazolo[4,3-c]pyridin-3-yl]-2-trifluoromethyl-benzyl}-3-methyl-butyramide]: 80 nM; for `CC(C)=CC(=O)NCc1cc(-c2nn(CC(O)CN3CCC(N(C)C)C3)c3c2CN(S(C)(=O)=O)CC3)ccc1C(F)(F)F` (centres unmarked) [Example 33, 3-Methyl-but-2-enoic acid 5-{1-[3-(3-dimethylamino-pyrrolidin-1-yl)-2-hydroxy-propyl]-5-methanesulfonyl-4,5,6,7-tetrahydro-1H-pyrazolo[4,3-c]pyridin-3-yl}-2-trifluoromethyl-benzylamide]: 460 nM.
`CC(=O)N1CCc2c(c(-c3ccc(C(F)(F)F)c(CNC(=O)c4ccc(F)cc4)c3)nn2CC(O)CN2CCC3(CCNC3=O)CC2)C1` (centres unmarked) [Example 7, N-(5-{5-Acetyl-1-[2-hydroxy-3-(1-oxo-2,8-diaza-spiro[4.5]dec-8-yl)-propyl]-4,5,6,7-tetrahydro-1H-pyrazolo[4,3-c]pyridin-3-yl}-2-trifluoromethylbenzyl)-4-fluoro-benzamide]: the IC50 is 70 nM.
In the case of `CS(=O)(=O)N1CCc2c(c(-c3ccc(Cl)c(COCc4ccc(F)cc4)c3)nn2CCCN2CCCC2)C1` [Example 4, 3-[4-Chloro-3-(4-fluoro-benzyloxymethyl)-phenyl]-5-methanesulfonyl-1-(3-pyrrolidin-1-yl-propyl)-4,5,6,7-tetrahydro-1H-pyrazolo[4,3-c]pyridine], the 50% inhibitory concentration (IC50) amounted to 1450 nM.
Consider `CS(=O)(=O)N1CCc2c(c(-c3ccc(C(F)(F)F)c(CNC(=O)c4ccc(F)cc4)c3)nn2CC(O)CN2CC[C@@H](CO)C2)C1` (stereo partly drawn) [Example 95, (R)-4-Fluoro-N-(5-{1-[2-hydroxy-3-(3-hydroxymethyl-pyrrolidin-1-yl)-propyl]-5-methanesulfonyl-4,5,6,7-tetrahydro-1H-pyrazolo[4,3-c]pyridin-3-yl}-2-trifluoromethyl-benzyl)-benzamide], for which the IC50 is 230 nM.

A word on the IC50: it is the concentration at which inhibition is half-maximal.
